Tests used:
[1] = Clearance in human liver microsomes; assay type: in vitro ADME; details: hepatic extraction ratio; 0.5 μM compound, 0.5 mg/mL microsomes, 1 mM NADPH, 30 min
Procedure: Test compound concentration is 0.5 μM, microsome concentration is 0.5 mg/mL and NADPH concentration is 1 mM in the incubation. The described method is performed by the liquid handling system Tecan RSP and is based on a 96-well format.
Control incubations with test compound without NADPH and test compound without microsomes are conducted to investigate non-CYP mediated metabolism and stability in phosphate buffer at 37° C., respectively.
The human liver microsomal suspension in phosphate buffer is mixed with NADPH. The mixture is pre-heated (7 min) to 37° C. Test compound is added, and the mixture is incubated for 30 minutes. Incubations are run in duplicate. Samples are withdrawn at predetermined stop times and mixed with methanol containing internal standard (IS) to terminate all enzyme activity and precipitate proteins. A control without NADPH (to detect problems such as nonspecific protein binding, heat instability or non-CYP mediated metabolism) and a control without microsomes (for assessing compound stability in the absence of any active enzymes) are tested.
The percentage of organic solvent in the incubations is less than 1%. Careful inspections of reagents are performed prior to the start of any experiment to ensure all reagents are in solution.
The 96-well plates are centrifuged. Test compound depletion, using a compound specific LC/MS/MS method, is determined.
The logarithm of the peak area ratios of test compound to internal standard (IS) versus incubation time is plotted in a graph.
The rate constant (k) (min^−1) of test compound depletion is calculated from the linear part of the curve and the half-time (t1/2) in minutes can be calculated from the rate constant (Eq. 2).
Intrinsic clearance (Clint) (mL/min/mg protein) is calculated from: […]
where c is the microsomal protein concentration in mg/mL.
Intrinsic clearance is the maximum ability of the liver to extract a drug in the absence of blood flow restrictions.
Conversion to apparent clearance (Clapp) (mL/min/kg) is done by Eq. 4:
Clapp=Clint×a×b/d (Eq. 4)
where a, b and d are the scaling factors for normalizing Clint to human body weight.
The following human scaling factors are used:
a: 45 (microsomal protein/liver weight (mg/g)) b: 1500 (liver weight (g)) d: 70 (body weight (kg))
Hepatic clearance (Clh) (mL/min/kg) based on the well-stirred model is described as followed:
Clh=(Clapp·Q)/(Clapp+Q) (Eq. 5)
where Q is the liver blood flow in mL/min/kg (20 in humans).
Dividing hepatic clearance with liver blood flow, the hepatic extraction ratio (%) can be calculated:
Apparent clearance below approximately 10 mL/min/kg human body weight (corresponding to extraction ratio of approx. 33%) is considered as low clearance (high metabolic stability). Apparent intrinsic clearance above approximately 60 mL/min/kg human body weight (corresponding to extraction ratio of approx. 75%) is considered as high clearance (low metabolic stability).

human CaSR = target: T1, human CaSR (Homo sapiens, UniProt P41180); assay: Functional whole cell assay (modulation of human CaSR), IP1 accumulation in CHO-K1 cells; assay type: cell-based; details: CHO-K1 cells stably expressing human CaSR, final Ca2+ 1.9 mM, IP1 readout; concentration giving 50% of maximum agonistic response
T1 construct: The ORF coding for the human CaSR (genebank: NM_000388)
T1 sequence (P41180 20-1078): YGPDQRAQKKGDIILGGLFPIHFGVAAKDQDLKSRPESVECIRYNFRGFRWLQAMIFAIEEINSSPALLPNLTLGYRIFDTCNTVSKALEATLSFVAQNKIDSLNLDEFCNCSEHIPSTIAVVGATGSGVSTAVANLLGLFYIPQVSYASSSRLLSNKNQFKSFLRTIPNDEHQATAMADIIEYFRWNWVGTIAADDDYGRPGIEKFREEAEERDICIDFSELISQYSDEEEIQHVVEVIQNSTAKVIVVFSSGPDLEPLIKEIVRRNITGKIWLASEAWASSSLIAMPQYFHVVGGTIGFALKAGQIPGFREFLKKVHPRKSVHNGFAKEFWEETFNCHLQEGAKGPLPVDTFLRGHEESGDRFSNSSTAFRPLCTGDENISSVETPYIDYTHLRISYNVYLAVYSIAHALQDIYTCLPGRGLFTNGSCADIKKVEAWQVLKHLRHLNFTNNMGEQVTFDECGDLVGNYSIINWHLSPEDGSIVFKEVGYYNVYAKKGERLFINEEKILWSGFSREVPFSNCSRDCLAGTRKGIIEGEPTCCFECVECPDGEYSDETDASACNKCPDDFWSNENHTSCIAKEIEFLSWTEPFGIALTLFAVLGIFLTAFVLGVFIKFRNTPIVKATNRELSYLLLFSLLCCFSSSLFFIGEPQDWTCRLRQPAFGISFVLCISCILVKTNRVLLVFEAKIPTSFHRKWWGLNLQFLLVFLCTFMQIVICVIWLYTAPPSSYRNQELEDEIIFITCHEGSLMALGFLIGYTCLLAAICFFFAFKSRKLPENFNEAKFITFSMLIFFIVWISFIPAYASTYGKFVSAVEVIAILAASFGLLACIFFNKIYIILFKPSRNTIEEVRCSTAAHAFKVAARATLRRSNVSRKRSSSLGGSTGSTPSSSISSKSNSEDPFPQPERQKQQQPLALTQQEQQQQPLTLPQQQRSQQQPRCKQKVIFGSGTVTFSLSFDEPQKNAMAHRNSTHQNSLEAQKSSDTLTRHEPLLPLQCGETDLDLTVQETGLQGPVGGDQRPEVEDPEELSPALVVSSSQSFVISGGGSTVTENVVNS
Excerpt: The assay investigates a compound's functional ability to act as a biological positive modulator on the human CaSR. Activation of the receptor expressed on CHO-K1 cells is detected through the G alpha q pathway, the activation of phospholipase C and the accumulation of intracellular inositol phosphate (IP) as described earlier [Sandrine Ferry, Bruno Chatel, Robert H. Dodd, Christine Lair, Danielle Gully, Jean-Pierre Maffrand, and Martial Ruat. Effects of Divalent Cations and of a Calcimimetic on Adrenocorticotropic Hormone Release in Pituitary Tumor Cells. Biochemical and biophysical research Communications 238, 866-873 (1997)]. The human CaSR is stably expressed on a CHO-K1 cell clone, stimulated with a basal level of calcium and challenged with the tested compound. The level of IP1 is determined using the IP-One Terbium htrf kit (Cisbio, France). CHO-K1 cells not transfected with the CaSR fail to elicit an IP1 response upon calcium and/or compound stimulation.
The ORF coding for the human CaSR (genebank: NM_000388) was acquired from Invitrogen Corp, USA and subsequently cloned into the mammalian expression vector pCDA3.1.
CHO-K1 cells were transfected using Lipofectamine according to manufacturer's protocol (400.000 cells/well were seeded in a 6-well plate and transfected after 24 hours using 2 μg DNA and 5 μl lipofectamine). After another 24 hours the cells were detached, seeded and subjected to 1 mg/ml of G-418. Following 7 days growth single clones were picked, the CaSR expression evaluated using the 5C10 antibody against CaSR, the clones with the highest expression were selected and tested for functional response. The preferred clone was cultured according to standard procedures described in ATCC (American Type Culture Collection) protocols for CHO-K1 with the addition of 500 μg/ml G-418.
On the assay day, cells were thawed, harvested and resuspended to 4*10^6 cells/ml in stimulation buffer (containing: Hepes 10 mM, MgCl2 0.5 mM, KCl 4.2 mM, NaCl 146 mM, glucose 5.5 mM, LiCl 50 mM, BSA 0.5% at pH 7.4). Ten μl cell solution was pipetted into wells of a white 384-well plate (Perkin Elmer Optiplate) containing 2 μl compound diluted in assay buffer (containing: Hepes 10 mM, MgCl2 0.5 mM, KCl 4.2 mM, NaCl 146 mM, glucose 5.5 mM, LiCl 50 mM, CaCl2 11.4 mM at pH 7.4), resulting in a final Ca^2+ concentration of 1.9 mM. After compound stimulation for 1 hour at 37° C. and 15 min at room temperature, 10 ul of IP-One assay detection reagent (prepared as described by the IP-One assay kit manufacturer) was added and the plate was incubated for another 1 hour at room temperature. Finally the plate was read using a Perkin Elmer EnVision, according to the protocol supplied by the IP-One assay kit manufacturer. The FRET ratio was calculated by dividing the 665 nm emission signal with that of the 615 nm.
The molar concentration of a compound that produces 50% of the maximum agonistic response (the […] value) is calculated according to the equation “General sigmoidal curve with Hill slope, a to d” (Equation 1). This model describes a sigmoidal curve with an adjustable baseline. The equation can be used to fit curves where response is either increasing or decreasing with respect to the independent variable, X.
y=(a−d)/(1+(x/c)̂b)+d Equation 1.
x=concentration of tested compound y=response (%) a=min response as compound concentration approaches 0 d=max response as concentration of tested compound is increasing c=IC50 for the curve b=Hill coefficient or curve slope

| Clearance (% Eh) in human liver microsomes [1] | EC50 (human CaSR) [nM] | SMILES |
| --- | --- | --- |
| A (A: Eh < 33%) | 200 to 1000 | C[C@@H](N[C@H]1CC[C@@H](c2ccc(NCCS(N)(=O)=O)nc2)C1)c1cccc2c1OCO2 [Compound 114, 2-[[5-[(1R,3S)-3-[[(1R)-1-(1,3-Benzodioxol-4-yl)ethyl]amino]cyclopentyl]-2-pyridyl]amino]ethanesulfonamide] |
| A (A: Eh < 33%) | 200 to 1000 | CCOc1cccc([C@@H](C)N[C@H]2CC[C@@H](c3ccc(N4CCNC(=O)C4)nc3)C2)c1 [Compound 117, 4-[5-[(1R,3S)-3-[[(1R)-1-(3-Ethoxyphenyl)ethyl]amino]cyclopentyl]-2-pyridyl]piperazin-2-one] |
| A (A: Eh < 33%) | 200 to 1000 | C[C@@H](N[C@H]1CC[C@@H](c2ccc(NCCS(N)(=O)=O)nc2)C1)c1cccc(Cl)c1 [Compound 121, 2-[[5-[(1R,3S)-3-[[(1R)-1-(3-Chlorophenyl)ethyl]amino]cyclopentyl]-2-pyridyl]amino]ethanesulfonamide] |
| A (A: Eh < 33%) | 200 to 1000 | COc1cc([C@@H](C)N[C@H]2CC[C@@H](c3cnc(NCCNS(C)(=O)=O)nc3)C2)ccc1F [Compound 123, N-[2-[[5-[(1R,3S)-3-[[(1R)-1-(4-Fluoro-3-methoxy-phenyl)ethyl]amino]cyclopentyl]pyrimidin-2-yl]amino]ethyl]methanesulfonamide] |

Source: patent publication US20130267516A1, “SUBSTITUTED CYCLOPENTYL-AZINES AS CASR-ACTIVE COMPOUNDS” (LEO PHARMA A/S, priority 2010, published 2013)
